The values below come from patent publication US20040116386A1, “Resveratrol-phospholipids complexes, their preparation, and pharmaceutical and cosmetic composition containing same” (priority 2001, published 2004).

A short description of data set [1]: Permeability through rabbit colon, Ussing Chamber method. It is filed as in vitro ADME. From the text:
This device consists of: 6 cells divided into two parts by a septum, which accommodate the tissue obtained from the rabbit colon; an oxygenation system; a system for the circulation of a specific buffer solution maintained at constant temperature by heating; and finally electrodes for measuring the compound concentration variations, wherefrom the apparent permeability coefficient (Papp), expressed in cm/sec, is obtained.

The nature of data set [2]: Pharmacokinetic study, oral administration to rats. The class given is in vivo. Conditions: rat, blood, equimolecular doses (Resveratrol 2 mg/Kg, complex 9.13 mg/Kg). The method, then:
The product concentration in blood was determined at prefixed time intervals.

A word on the Papp: it is a coefficient for how fast a substance crosses the barrier. High values mean ready permeation, low ones poor permeation. Consider `Oc1ccc(/C=C/c2cc(O)cc(O)c2)cc1` [trans-Resveratrol], for which, in data set [1], the Papp came out at 0.2 ×10⁻⁶ cm/s. Also, the concentration at 15 min in data set [2] (15 min) worked out at 18 ng/mL. Besides, the concentration at 30 min in data set [2] (30 min) came to 34 ng/mL. Also, the concentration at 60 min in data set [2] (60 min) is 43 ng/mL. The concentration at 120 min in data set [2] (120 min) turned out to be 11 ng/mL. Besides, the concentration at 240 min in data set [2] (240 min) was determined as 0 ng/mL.
